Results on 13 molecules are retold here after patent US8420851B2, “Selective TR-β 1 agonist” (Cadila Healthcare Limited, priority 2006, dated 2013).

One data set addresses T1, TR-β (Homo sapiens, UniProt P10828).
T1 sequence (P10828 1-461): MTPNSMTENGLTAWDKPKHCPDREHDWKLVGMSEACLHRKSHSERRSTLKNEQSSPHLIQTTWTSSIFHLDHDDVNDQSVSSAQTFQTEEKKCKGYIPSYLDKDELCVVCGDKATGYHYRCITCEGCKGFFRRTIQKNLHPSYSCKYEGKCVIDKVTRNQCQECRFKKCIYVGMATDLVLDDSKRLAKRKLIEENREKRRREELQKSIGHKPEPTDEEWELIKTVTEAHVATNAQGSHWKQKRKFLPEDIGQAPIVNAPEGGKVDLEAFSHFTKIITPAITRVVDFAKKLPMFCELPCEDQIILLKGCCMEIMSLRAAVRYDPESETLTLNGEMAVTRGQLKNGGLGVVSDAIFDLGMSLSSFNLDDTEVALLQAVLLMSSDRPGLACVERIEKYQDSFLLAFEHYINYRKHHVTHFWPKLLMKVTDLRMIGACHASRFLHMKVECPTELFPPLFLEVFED
Nature of the data set: In vitro TR-β activity (in-house protocol). Particulars: for fold induction at 0.001 µM: Conc. 1 nM; for fold induction at 0.001 µM / fold induction at 0.01 µM / fold induction at 0.1 µM / fold induction at 1 µM: read-out: TR-β Fold Induction w.r.t T3(100 nm); for fold induction at 0.01 µM: Conc. 10 nM; for fold induction at 0.1 µM: Conc. 100 nM; for fold induction at 1 µM: Conc. 1000 nM. In kind it is cell-based. As for the experimental part:
(§1) Invitro TR-α & TR-β activities were determined as per in-house protocols and the results of representative compounds are provided in tables 1 & 2 below as a proof of the efficacies of the novel class of compounds disclosed above.

The next data set deals with T2, TR-α (Homo sapiens, UniProt P10827).
T2 sequence (P10827 1-410 isoform P10827-2): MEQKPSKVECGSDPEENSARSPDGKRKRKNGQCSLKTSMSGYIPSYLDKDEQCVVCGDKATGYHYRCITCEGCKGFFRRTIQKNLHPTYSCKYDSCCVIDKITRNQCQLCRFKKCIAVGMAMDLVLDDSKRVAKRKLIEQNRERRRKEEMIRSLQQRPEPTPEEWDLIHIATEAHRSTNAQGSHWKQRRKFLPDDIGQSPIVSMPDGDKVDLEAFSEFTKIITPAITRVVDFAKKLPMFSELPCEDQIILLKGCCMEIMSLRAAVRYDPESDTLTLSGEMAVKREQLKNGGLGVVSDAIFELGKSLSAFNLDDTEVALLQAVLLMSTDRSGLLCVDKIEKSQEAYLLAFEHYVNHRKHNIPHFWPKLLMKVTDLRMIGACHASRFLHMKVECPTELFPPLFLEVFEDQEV
Nature of the data set: In vitro TR-α activity (in-house protocol). In kind it is cell-based. The method, then: as §1

Turning to `CC(C)c1cc(Oc2c(Cl)cc(N(CC(=O)O)CC(=O)O)cc2Cl)ccc1O` [Example 31, {Carboxymethyl-[3,5-dichloro-4-(4-hydroxy-3-isopropyl-phenoxy)-phenyl]-amino}-acetic acid], on TR-β, the fold induction at 0.001 µM is 12.1, the fold induction at 0.01 µM is 27.8, the fold induction at 0.1 µM stood at 64.3 and the fold induction at 1 µM is 75.2. The “TR-α Fold Induction w.r.t T3(100 nm)” value on TR-α (Conc. 1 nM) was 8.17. Besides, the “TR-α Fold Induction w.r.t T3(100 nm)” value on TR-α (Conc. 10 nM) was 17.06. Besides, on TR-α (Conc. 100 nM), the “TR-α Fold Induction w.r.t T3(100 nm)” value is 50.99. For the same molecule, the “TR-α Fold Induction w.r.t T3(100 nm)” value at TR-α (Conc. 1000 nM) is 46.21.
`CC(C)c1cc(Oc2c(Cl)cc(N(CC(=O)O)C(=O)Oc3ccc(O)cc3)cc2Cl)ccc1O` [Example 32, [[3,5-Dichloro-4-(4-hydroxy-3-isopropyl-phenoxy)-phenyl]-(4-hydroxy-phenoxycarbonyl)-amino]-acetic acid]: at TR-β, the fold induction at 0.001 µM turned out to be 24.7, the fold induction at 0.01 µM is 73.7, the fold induction at 0.1 µM turned out to be 119 and the fold induction at 1 µM turned out to be 94.9. For the same molecule, the “TR-α Fold Induction w.r.t T3(100 nm)” value at TR-α (Conc. 1 nM) is listed as 23.36. The “TR-α Fold Induction w.r.t T3(100 nm)” value at TR-α (Conc. 10 nM) is reported as 74.20. The “TR-α Fold Induction w.r.t T3(100 nm)” value on TR-α (Conc. 100 nM) came out at 87.50. The “TR-α Fold Induction w.r.t T3(100 nm)” value on TR-α (Conc. 1000 nM) came to 72.37.
Turning to `O=C(O)CN(CC(=O)O)c1cc(Cl)c(Oc2ccc(O)c(S(=O)(=O)N3CCCCC3)c2)c(Cl)c1` [Example 33, (Carboxymethyl-{3,5-dichloro-4-[4-hydroxy-3-(piperidine-1-sulfonyl)-phenoxy]-phenyl}-amino)-acetic acid], at TR-β, the fold induction at 0.001 µM was 8.63, the fold induction at 0.01 µM was found to be 11.9, the fold induction at 0.1 µM is 26 and the fold induction at 1 µM was found to be 46.8. Further, the “TR-α Fold Induction w.r.t T3(100 nm)” value at TR-α (Conc. 1 nM) came out at 9.66. Further, at TR-α (Conc. 10 nM), the “TR-α Fold Induction w.r.t T3(100 nm)” value is 13.90. Moreover, the “TR-α Fold Induction w.r.t T3(100 nm)” value at TR-α (Conc. 100 nM) worked out at 25.46. In addition, the “TR-α Fold Induction w.r.t T3(100 nm)” value at TR-α (Conc. 1000 nM) was 46.33.
For the molecule `CC(C)(C)c1cc(Oc2c(Cl)cc(N(CC(=O)O)CC(=O)O)cc2Cl)ccc1O` [Example 34, {[4-(3-tert-Butyl-4-hydroxy-phenoxy)-3,5-dichloro-phenyl]-carboxymethyl-amino}-acetic acid], at TR-β, the fold induction at 0.001 µM stood at 8.37, the fold induction at 0.01 µM was 21.3, the fold induction at 0.1 µM came out at 51.1 and the fold induction at 1 µM came to 55.7. Besides, the “TR-α Fold Induction w.r.t T3(100 nm)” value at TR-α (Conc. 1 nM) came to 12.66. Further, the “TR-α Fold Induction w.r.t T3(100 nm)” value on TR-α (Conc. 10 nM) was 26.23. The “TR-α Fold Induction w.r.t T3(100 nm)” value at TR-α (Conc. 100 nM) was found to be 62.95. Besides, at TR-α (Conc. 1000 nM), the “TR-α Fold Induction w.r.t T3(100 nm)” value was determined as 53.76.
Take `CC(C)(C)c1cc(Oc2c(Cl)cc(N(CC(=O)O)C(=O)Oc3ccc(O)cc3)cc2Cl)ccc1O` [Example 35, [[4-(3-tert-Butyl-4-hydroxy-phenoxy)-3,5-dichloro-phenyl]-(4-hydroxy-phenoxycarbonyl)-amino]-acetic acid]: on TR-β, the fold induction at 0.001 µM came to 22.4. For the same molecule, the fold induction at 0.01 µM at TR-β was determined as 80.5. The fold induction at 0.1 µM at TR-β stood at 125. For the same molecule, at TR-β, the fold induction at 1 µM is 81.3. Also, the “TR-α Fold Induction w.r.t T3(100 nm)” value on TR-α (Conc. 1 nM) is on record as 25.40; at TR-α (Conc. 10 nM) it was 106.00; at TR-α (Conc. 100 nM), 130.68; at TR-α (Conc. 1000 nM) it was 72.06.
Take `Cc1cc(N(CC(=O)O)CC(=O)O)cc(C)c1Oc1ccc(O)c(C(C)C)c1` [Example 37, {Carboxymethyl-[4-(4-hydroxy-3-isopropyl-phenoxy)-3,5-dimethyl-phenyl]-amino}-acetic acid]: on TR-β, the fold induction at 0.001 µM stood at 21.2, the fold induction at 0.01 µM turned out to be 66.7, the fold induction at 0.1 µM came to 125 and the fold induction at 1 µM stood at 95.6. In addition, the “TR-α Fold Induction w.r.t T3(100 nm)” value on TR-α (Conc. 1 nM) stood at 14.93. Besides, the “TR-α Fold Induction w.r.t T3(100 nm)” value at TR-α (Conc. 10 nM) is on record as 40.84. The “TR-α Fold Induction w.r.t T3(100 nm)” value on TR-α (Conc. 100 nM) is on record as 71.78. Also, at TR-α (Conc. 1000 nM), the “TR-α Fold Induction w.r.t T3(100 nm)” value is recorded as 63.71.
Take `CN(C)S(=O)(=O)c1cc(Oc2c(Cl)cc(N(CC(=O)O)C(=O)Oc3ccc(O)cc3)cc2Cl)ccc1O` [Example 38, [[3,5-Dichloro-4-(3-dimethylsulfamoyl-4-hydroxy-phenoxy)-phenyl]-(4-hydroxy-phenoxycarbonyl)-amino]-acetic acid]: at TR-β, the fold induction at 0.001 µM came out at 12.3, the fold induction at 0.01 µM was 16.9, the fold induction at 0.1 µM is 43.5 and the fold induction at 1 µM is 81.4. Moreover, the “TR-α Fold Induction w.r.t T3(100 nm)” value on TR-α (Conc. 1 nM) was found to be 09.36. The “TR-α Fold Induction w.r.t T3(100 nm)” value at TR-α (Conc. 10 nM) stood at 13.61. Besides, the “TR-α Fold Induction w.r.t T3(100 nm)” value at TR-α (Conc. 100 nM) is recorded as 25.32. Besides, the “TR-α Fold Induction w.r.t T3(100 nm)” value on TR-α (Conc. 1000 nM) amounted to 41.59.
For `O=C(O)CN(C(=O)Oc1ccc(O)cc1)c1cc(Cl)c(Oc2ccc(O)c(S(=O)(=O)N3CCCCC3)c2)c(Cl)c1` [Example 41, [{3,5-Dichloro-4-[4-hydroxy-3-(piperidine-1-sulfonyl)-phenoxy]-phenyl}-(4-hydroxy-phenoxycarbonyl)-amino]-acetic acid], at TR-β, the fold induction at 0.001 µM came to 23.3, the fold induction at 0.01 µM was 73.5, the fold induction at 0.1 µM turned out to be 90 and the fold induction at 1 µM worked out at 67. Moreover, on TR-α (Conc. 1 nM), the “TR-α Fold Induction w.r.t T3(100 nm)” value was 20.78. Further, at TR-α (Conc. 10 nM), the “TR-α Fold Induction w.r.t T3(100 nm)” value came to 56.19. For the same molecule, on TR-α (Conc. 100 nM), the “TR-α Fold Induction w.r.t T3(100 nm)” value is given as 99.00. Besides, the “TR-α Fold Induction w.r.t T3(100 nm)” value on TR-α (Conc. 1000 nM) is listed as 78.50.
For the molecule `Cc1cc(N(CC(=O)O)C(=O)Oc2ccc(O)cc2)cc(C)c1Oc1ccc(O)c(C(C)C)c1` [Example 42, [[4-(4-Hydroxy-3-isopropyl-phenoxy)-3,5-dimethyl-phenyl]-(4-hydroxy-phenoxycarbonyl)-amino]-acetic acid], the fold induction at 0.001 µM on TR-β is 12.9. For the same molecule, the fold induction at 0.01 µM at TR-β is 41.4. Besides, the fold induction at 0.1 µM at TR-β stood at 91.9. At TR-β, the fold induction at 1 µM stood at 86. Besides, the “TR-α Fold Induction w.r.t T3(100 nm)” value on TR-α (Conc. 1 nM) is 11.05; on TR-α (Conc. 10 nM) it was 26.63; on TR-α (Conc. 100 nM), 72.96; on TR-α (Conc. 1000 nM) it was 80.89.
Broadly, the EC50 is the concentration at which the effect is half-maximal. A lower EC50 goes with a more potent agent. `O=C(O)CN(C(=O)Oc1ccc(O)cc1)c1cc(Cl)c(Oc2ccc(O)c(C(=O)c3ccc(Cl)cc3)c2)c(Cl)c1` [Example 44, [{3,5-Dichloro-4-[3-(4-chloro-benzoyl)-4-hydroxy-phenoxy]-phenyl}-(4-hydroxy-phenoxycarbonyl)-amino]-acetic acid]: the EC50 is 14.8 nM at TR-β and 84.8 nM at TR-α.
As to `CC(C)NS(=O)(=O)c1cc(Oc2c(Cl)cc(N(CC(=O)O)C(=O)Oc3ccc(O)cc3)cc2Cl)ccc1O` [Example 45, [[3,5-Dichloro-4-(4-hydroxy-3-isopropylsulfamoyl-phenoxy)-phenyl]-(4-hydroxy-phenoxycarbonyl)-amino]-acetic acid], on TR-β, the fold induction at 0.001 µM stood at 13.5, the fold induction at 0.01 µM amounted to 18.7, the fold induction at 0.1 µM amounted to 47.1 and the fold induction at 1 µM came to 88.9. Moreover, the “TR-α Fold Induction w.r.t T3(100 nm)” value at TR-α (Conc. 1 nM) worked out at 10.48. In addition, the “TR-α Fold Induction w.r.t T3(100 nm)” value at TR-α (Conc. 10 nM) was 12.02. In addition, at TR-α (Conc. 100 nM), the “TR-α Fold Induction w.r.t T3(100 nm)” value was 23.05. Also, the “TR-α Fold Induction w.r.t T3(100 nm)” value on TR-α (Conc. 1000 nM) is reported as 50.62.
Take `O=C(O)CN(C(=O)Oc1ccc(O)cc1)c1cc(Cl)c(Oc2ccc(O)c(C(=O)c3cccc(Cl)c3)c2)c(Cl)c1` [Example 47, [{3,5-Dichloro-4-[3-(3-chloro-benzoyl)-4-hydroxy-phenoxy]-phenyl}-(4-hydroxy-phenoxycarbonyl)-amino]-acetic acid]: the EC50 at TR-β stood at 11.3 nM; at TR-α, 16.4 nM.
For `CCc1cc(Oc2c(Cl)cc(N(CC(=O)O)C(=O)Oc3ccc(O)cc3)cc2Cl)ccc1O` [Example 48, [[3,5-Dichloro-4-(3-ethyl-4-hydroxy-phenoxy)-phenyl]-(4-hydroxy-phenoxycarbonyl)-amino]-acetic acid], at TR-β, the fold induction at 0.001 µM came out at 9.02, the fold induction at 0.01 µM worked out at 19.4, the fold induction at 0.1 µM came to 47.7 and the fold induction at 1 µM turned out to be 37.6. Also, the “TR-α Fold Induction w.r.t T3(100 nm)” value at TR-α (Conc. 1 nM) is 08.16. Besides, on TR-α (Conc. 10 nM), the “TR-α Fold Induction w.r.t T3(100 nm)” value amounted to 17.51. For the same molecule, the “TR-α Fold Induction w.r.t T3(100 nm)” value at TR-α (Conc. 100 nM) is recorded as 34.61. The “TR-α Fold Induction w.r.t T3(100 nm)” value at TR-α (Conc. 1000 nM) is 45.08.
